Source: patent US20260265199A1, “CRYSTALLINE FORMS OF (R)-2-AMINO-5-(4-(2-(3,5-DIFLUOROPHENYL)-2-HYDROXYACETAMIDO)-2-METHYLPHENYL)-N-ISOPROPYLNICOTINAMIDE AND METHODS FOR USING THE SAME” (HIBERCELL, INC., priority 2023, published 2026)
Structures can show the parent of a compound that is named as a salt.

Assay: Physical and chemical stability at 40° C. (75% RH) and 60° C. (XRPD, HPLC)
Assay type: physicochemical
Settings: for Physical and chemical stability / XRPD - 29 days / Purity (%) - 29 days: 29 days
Experimental: HPLC analysis was performed with an Agilent HPLC 1260 series instrument.
Appropriate amount of the Form A of the hemi-fumarate salt was placed at 40° C. (75% RH) and 60° C. for several days. The solids were analyzed by XRPD (Example 1, XRPD) and HPLC (Example 1, HPLC) at appropriate time points. The physical and chemical stabilities of the Form A of the hemi-fumarate salt was conducted at 60° C. and at 40° C. (75% RH) for 29 days. No obvious degradation occurred and no form change was observed under testing conditions. […] (75% RH) for 29 days.

Cc1cc(NC(=O)[C@H](O)c2cc(F)cc(F)c2)ccc1-c1cnc(N)c(C(=O)NC(C)C)c1 [Form A of the hemi-fumarate salt, (R)-2-amino-5-(4-(2-(3,5-difluorophenyl)-2-hydroxyacetamido)-2-methylphenyl)-N-isopropylnicotinamide]
Purity (%) - 8 days (40° C. (75% RH), HPLC): 99.86% | Physical and chemical stability (40° C. (75% RH)): physically and chemically stable | XRPD - 29 days (40° C. (75% RH)): No Change | Purity (%) - 29 days (40° C. (75% RH), HPLC): 99.92% | Purity (%) - 8 days (60° C., HPLC): 99.86% | Physical and chemical stability (60° C.): physically and chemically stable | XRPD - 29 days (60° C.): No Change | Purity (%) - 29 days (60° C., HPLC): 99.91% | Purity (%) (Starting material (before storage), HPLC): 99.87%
